In data set [1] the target is T1, Peroxisome proliferator-activated receptor alpha (Homo sapiens, UniProt Q07869).
T1 sequence (Q07869 whole entry): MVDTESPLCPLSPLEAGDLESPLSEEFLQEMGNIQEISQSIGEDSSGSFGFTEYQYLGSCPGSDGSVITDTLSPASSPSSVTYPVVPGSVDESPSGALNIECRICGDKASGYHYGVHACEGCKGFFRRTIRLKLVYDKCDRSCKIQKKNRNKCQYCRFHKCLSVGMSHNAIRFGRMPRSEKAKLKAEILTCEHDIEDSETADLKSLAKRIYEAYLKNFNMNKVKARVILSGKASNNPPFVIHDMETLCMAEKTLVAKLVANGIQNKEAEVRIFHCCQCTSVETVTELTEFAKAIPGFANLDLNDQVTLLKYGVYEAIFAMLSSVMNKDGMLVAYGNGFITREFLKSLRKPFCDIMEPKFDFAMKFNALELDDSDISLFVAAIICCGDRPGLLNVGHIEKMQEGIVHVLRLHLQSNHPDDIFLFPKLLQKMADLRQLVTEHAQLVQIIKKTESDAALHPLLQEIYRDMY
Description: (§1) Displacement of [3H2]nTZD3 from GST-tagged human recombinant PPARalpha by scintillation proximity assay

Data set [2] has as its target T2, Peroxisome proliferator-activated receptor gamma (Homo sapiens, UniProt P37231).
T2 sequence (P37231 whole entry): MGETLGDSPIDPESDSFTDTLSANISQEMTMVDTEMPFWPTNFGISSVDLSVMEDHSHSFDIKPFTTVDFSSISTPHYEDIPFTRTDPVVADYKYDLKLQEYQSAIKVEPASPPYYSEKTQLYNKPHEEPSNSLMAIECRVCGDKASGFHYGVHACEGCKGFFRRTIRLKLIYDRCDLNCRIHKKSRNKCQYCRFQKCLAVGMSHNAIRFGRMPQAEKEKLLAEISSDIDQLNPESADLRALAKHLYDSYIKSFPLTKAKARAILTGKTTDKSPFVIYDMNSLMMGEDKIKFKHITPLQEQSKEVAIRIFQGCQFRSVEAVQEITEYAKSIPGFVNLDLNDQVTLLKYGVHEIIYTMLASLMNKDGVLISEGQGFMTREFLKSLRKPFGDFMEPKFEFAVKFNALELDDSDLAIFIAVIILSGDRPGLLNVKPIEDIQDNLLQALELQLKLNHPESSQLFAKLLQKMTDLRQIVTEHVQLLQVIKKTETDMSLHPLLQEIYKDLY
The data set can be described thus: Displacement of [3H2]nTZD3 from GST-tagged human recombinant PPARgamma by scintillation proximity assay.

Data set [3] has as its target T1, Peroxisome proliferator-activated receptor alpha. The source holds these as a separate data set.
Description: as §1
In data set [4] the target is T3, Peroxisome proliferator-activated receptor gamma (Homo sapiens) (UniProt P37231).
T3 sequence (whole entry): T2 sequence (P37231 whole entry)
The data set can be described thus: Activation of human PPAR-gamma-dependent transcription expressed in human MCF7 cells assessed as induction of PPRE-reporter gene expression at 1 uM after 24 hrs by dual luciferase reporter gene assay. The class given is cell-based.

The nature of data set [5]: Cytotoxicity against human MCF7 cells expressing human PPARgamma assessed as cell survival at 5 uM after 7 days by sulforhodamine B assay.

Each structure is given as a SMILES string. pIC50: −log10 of the molar value. Active and inactive are the calls of the source. The rule behind the calls is not given here. A value given as a limit tells only on which side of the number the result lay.

As for `CCCCCC/C=C(\CCCCCCCC(=O)O)[N+](=O)[O-]`, the pIC50 was less than 4.82 in data set [1] and 6.08 in data set [2].

Turning to `CCCCCCCCCCCC/C(=C\CCCC(=O)O)[N+](=O)[O-]`, the negative logarithm of the IC50 (pIC50) in data set [1] was less than 4.82; in data set [2], 5.76.

`CCCCC/C=C(\CCCCCCCCCCC(=O)O)[N+](=O)[O-]`: the negative-log IC50 (pIC50) in data set [1] is 5.80; in data set [2] it was 7.41.

Consider `CCCCC/C(=C\CCCCCCCCCCC(=O)O)[N+](=O)[O-]`, for which the pIC50 in data set [1] is 5.96; in data set [2], 6.72.

With `CCCCCCCCCCCC/C=C(\CCCC(=O)O)[N+](=O)[O-]`, the negative logarithm of the IC50 (pIC50) in data set [1] is less than 4.82; in data set [2] it was 5.77.

`CCCCCC/C(=C\CCCCCCCC(=O)O)[N+](=O)[O-]`: the pIC50 in data set [1] is less than 4.82; in data set [2], 6.20.

On to `CCCCCCCC/C(=C\CCCCCCCC(=O)O)[N+](=O)[O-]` [CXA-10], for which the pIC50 in data set [1] is less than 4.82; in data set [2] it was 5.79.

`CCCCC/C=C(\C/C=C\CCCCCCCC(=O)O)[N+](=O)[O-]`: the negative logarithm of the IC50 (pIC50) in data set [3] is 5.02. Moreover, in data set [4], the result was Active.

On to `CCCCCCCC/C=C(\CCCCCCCC(=O)O)[N+](=O)[O-]` [NITROLEIC ACID], for which the pIC50 is less than 4.82 in data set [1] and 6.01 in data set [2]. For the same molecule, in data set [5], the viability at 168 h, 5 µM is less than 5%.

Source of the values: ChEMBL document CHEMBL1151944, “Activation of peroxisome proliferator-activated receptor gamma (PPARgamma) by nitroalkene fatty acids: importance of nitration position and degree of unsaturation” (J Med Chem, 2009).
